Test results reported in PubChem BioAssay (NCI).
Several values for one entry are separate records, joined by “and”; a condition that tells them apart may be missing. Identical values can stand only once.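 Test compounds were applied to cells in 96-well plates for 48 hours at 5 doses. Abbreviation: GI50, concentration required for 50% inhibition of growth. TGI denotes the concentration required for complete inhibition of growth.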

What was measured:
Test in all cases: inhibition of tumour cell growth, NCI panel, 48 h
SF-295 CNS = test system: SF-295 CNS
LOX IMVI melanoma = test system: LOX IMVI melanoma
SNB-75 CNS = test system: SNB-75 CNS
MDA-MB-435 = test system: MDA-MB-435
COLO 205 colon = test system: COLO 205 colon
OVCAR-3 ovarian = test system: OVCAR-3 ovarian
MALME-3M melanoma = test system: MALME-3M melanoma
OVCAR-8 ovarian = test system: OVCAR-8 ovarian
SF-268 CNS = test system: SF-268 CNS
CAKI-1 renal = test system: CAKI-1 renal

SMILES	TGI (SF-295 CNS)	TGI (LOX IMVI melanoma)	TGI (SNB-75 CNS)	TGI (MDA-MB-435)	TGI (COLO 205 colon)	TGI (OVCAR-3 ovarian)	TGI (MALME-3M melanoma)	TGI (OVCAR-8 ovarian)	TGI (SF-268 CNS)	TGI (CAKI-1 renal)	GI50 (SF-295 CNS)	GI50 (LOX IMVI melanoma)	GI50 (SNB-75 CNS)	GI50 (MDA-MB-435)	GI50 (COLO 205 colon)	GI50 (OVCAR-3 ovarian)	GI50 (MALME-3M melanoma)	GI50 (OVCAR-8 ovarian)	GI50 (SF-268 CNS)	GI50 (CAKI-1 renal)
O=C[C@@H](CO)O[C@H](C=O)n1cnc2c(=O)[nH]cnc21	2230 µM	534 µM	2270 µM	2300 µM	992 µM	1410 µM	1300 µM	2020 µM	1840 µM	1590 µM										
O=C([O-])CC(=O)[O-].[NH-][C@@H]1CCCC[C@H]1[NH-].[Pt+4]	> 100 µM	> 100 µM	> 100 µM	> 100 µM	> 100 µM	> 100 µM	> 100 µM	> 100 µM	> 100 µM	> 100 µM	39.4 µM	15 µM	> 35.9 µM	15.5 µM	54 µM	24.9 µM	6.4 µM	24.5 µM	59.1 µM	3.53 µM
N#Cc1cc(S(=O)(=O)Nc2nc3ccccc3o2)c(SCc2ccccc2)cc1Cl	65.8 µM	36.5 µM	59.3 µM	60.2 µM	> 100 µM	52.3 µM	69.9 µM	63.2 µM	> 100 µM	65.2 µM	27.2 µM	18.7 µM	25.5 µM	27.2 µM	30.6 µM	24.2 µM	34.5 µM	5.1 µM	31.7 µM	24.7 µM
CNC(=O)c1ccccc1Nc1nc(Nc2ccc3c(c2OC)CCC[C@H](N2CCN(CCO)CC2)C3)ncc1Cl	3.79 µM and 3.42 µM	2.77 µM and 2.48 µM	12.6 µM and > 10 µM	6.92 µM and > 10 µM	2.2 µM and 1.6 µM	20.3 µM and > 10 µM	3.09 µM and > 10 µM	19.9 µM and > 10 µM	16.5 µM and > 10 µM	13.1 µM and > 10 µM	1.71 µM and 1.49 µM	1.31 µM and 1.09 µM	1.88 µM and 2.49 µM	1.33 µM and 0.901 µM	0.335 µM and 0.295 µM	6.74 µM and 3.18 µM	0.875 µM and 1.63 µM	4.73 µM and 3.25 µM	3.23 µM and 3.22 µM	0.69 µM and 1.06 µM
O=C1NC(c2ccccc2)C2(C(=O)O)CN(C3CC3)c3cc(N4CCNCC4)c(F)cc3C2N1 (stereo not given)	> 100 µM	> 100 µM	> 100 µM	> 100 µM	> 100 µM	> 100 µM	> 100 µM	> 100 µM	> 100 µM	> 100 µM	> 100 µM	> 100 µM	> 100 µM	> 100 µM	> 100 µM	> 100 µM	> 100 µM	> 100 µM	> 100 µM	> 100 µM
CCn1c(-c2nonc2N)nc2c(N3CCCC3)nccc21	> 25 µM	> 25 µM	> 25 µM	> 25 µM	> 25 µM	> 25 µM	> 25 µM	> 25 µM	> 25 µM	> 25 µM	9.27 µM	8.91 µM	10.3 µM	12.2 µM	11 µM	14.7 µM	> 25 µM	9.88 µM	13.3 µM	13.4 µM
COc1ccc(-c2cc(=O)c3c(O)c(OC)c(OC)c(OC)c3o2)cc1	> 100 µM	> 100 µM	> 56.3 µM	> 100 µM	> 100 µM	> 100 µM	> 100 µM	> 100 µM	> 100 µM	> 100 µM										
COc1ccc(S(=O)(=O)N(C(C)=O)c2ccccc2/C=C/c2cc[n+]([O-])cc2)cc1	> 10 µM	> 10 µM	> 10 µM	0.576 µM	2.3 µM	1.57 µM	> 10 µM	> 10 µM	> 10 µM	> 10 µM	0.385 µM	0.955 µM	0.25 µM	0.143 µM	0.529 µM	0.371 µM	3.77 µM	1.11 µM	1.71 µM	0.588 µM
COC(C)C(O)(C(=O)OCC1=CCN2CCC(O)C12)C(C)(C)O (stereo not given)	> 100 µM	> 100 µM	> 100 µM	> 100 µM	> 100 µM	> 100 µM	> 100 µM	> 100 µM	> 100 µM	> 100 µM										
COc1ccc2[nH]c(C(=O)OCc3ccc4c(Cl)cc(Cl)c(O)c4n3)cc2c1	18 µM	2.22 µM	1.78 µM	2.45 µM	2.56 µM	1.83 µM	2.82 µM	2.6 µM	2.77 µM	2.13 µM	5.12 µM	0.907 µM	0.251 µM	1.13 µM	1.13 µM	0.513 µM	1.48 µM	1.15 µM	1.42 µM	0.768 µM
CCC1=C(CC2NCCc3ccccc32)CC2c3cc(OC)c(OC)cc3CCN2C1 (stereo not given)	15 µM and 6.82 µM	15.5 µM and 5.68 µM	13.8 µM and 2.47 µM	14.2 µM and 2.45 µM	4.13 µM and 0.547 µM	19 µM and 11.3 µM	9.64 µM and 2.75 µM	26.5 µM and 19.2 µM	14 µM and 6.12 µM	15.2 µM	3.73 µM	4.4 µM	4.09 µM	3.51 µM	1.81 µM and 0.199 µM	3.61 µM	3.02 µM	3.93 µM	3.13 µM	3.28 µM
CC(C)(C)OC(=O)Nc1ccc2c(c1)C(NC(=O)Nc1cccc(C#N)c1)CC(C)(C)O2 (stereo not given)	> 37.1 µM	> 60.5 µM	> 100 µM	15.2 µM	15.3 µM	> 100 µM	> 68 µM	55.7 µM	> 100 µM	> 42.6 µM	1.94 µM	1.53 µM	7.01 µM	1.44 µM	3.46 µM	2.15 µM	3.69 µM	3.13 µM	5.1 µM	2.49 µM
CC/C(=C/c1ccc(OC)cc1OC)[N+](=O)[O-]	21.7 µM	2.9 µM	16.6 µM	5.7 µM	4.24 µM	3.38 µM	4.93 µM	11.6 µM	12.7 µM	6.55 µM	9.88 µM	1.31 µM	3.28 µM	1.97 µM	2.04 µM	1.84 µM	1.91 µM	3.5 µM	3.28 µM	2.24 µM
COc1cc(C(=O)c2cocc2C(=O)c2ccc3c(c2)OCO3)cc(OC)c1OC	2.48 µM	30 µM	10.4 µM	0.955 µM	26.5 µM	8.15 µM	29.1 µM	30 µM	45 µM	35.7 µM										
COc1ccc2nc3cc(Cl)ccc3c(Nc3cc(CN4CCCC4)c(O)c(CN4CCCC4)c3)c2n1	6.51 µM	5.09 µM	2.7 µM	3.07 µM	2.48 µM	14.7 µM	3.32 µM	13.3 µM	3.55 µM	8.44 µM	2 µM	1.4 µM	1.38 µM	1.6 µM	1.18 µM	3.07 µM	1.83 µM	0.748 µM	1.28 µM	2.37 µM
